# Measurements published in ChEMBL document CHEMBL3507680, “University of Dundee, Gates Library screen for HepG2 cell viability”.
# Assay: Human HepG2 cell viability assay in 384 well format
# Assay type: toxicity, cell-based
# Set-up: dose 125 nL, time 70.5 hour; cytotoxicity at 70.5 h: concentration not given beside the values
# Details: HepG2 cells, read-out: Inhibition
row,SMILES,cytotoxicity at 70.5 h [%]
1,Cc1cc(CN2CCC(CNS(=O)(=O)c3ccc(C)s3)CC2)c(C)o1,-5.87
2,O=C(Oc1ccccc1)N1CCC(CNS(=O)(=O)c2cccnc2)CC1,20.9
3,COc1ccc(S(=O)(=O)NCCCc2ccc(N(C)C)cc2)cc1Cl,-3.09
4,O=C(Cc1ccc(F)cc1)NCC1CCN(Cc2ccsc2)CC1,-3.3
5,CCSc1ccccc1C(=O)NCC1CCN(Cc2ccsc2)CC1,2.8
6,Cc1nnsc1C(=O)NCC1CCN(c2ccccn2)CC1,-8.36
7,COC(=O)N1CCC(CNC(=O)C2CC2)CC1,-18.1
8,O=C(CC1CCCC1)NCCS(=O)(=O)N1CCN(c2ncccn2)CC1,-11
9,Cc1nnc2ccc(OCCNS(C)(=O)=O)nn12,-0.867
10,Cc1ccc(S(=O)(=O)NCCOc2ccc3nnc(C)n3n2)s1,-14.5
11,CCc1nnc2ccc(N3CCN(S(=O)(=O)c4ccc(Cl)s4)CC3)nn12,-19
12,CCc1nnc2ccc(N3CCN(S(=O)(=O)c4ccc(C)s4)CC3)nn12,-21.3
13,CN(C)C(CNS(=O)(=O)c1cc(F)ccc1F)c1cccn1C (configuration not stated),-11.3
14,CCc1cc(=O)[nH]c(-n2nc(C3CC3)cc2NC(=O)C2CC2)n1,42.7
15,Cc1nc(-n2nc(C3CC3)cc2NC(=O)C(C)C)[nH]c(=O)c1C,40.2
16,Cc1cc(=O)[nH]c(-n2nc(C)c(CCC(=O)NCc3cccs3)c2C)n1,-0.337
17,CCN(CC)CCSc1nnc(N2CCN(c3ccc(F)cc3)CC2)s1,-5.54
18,CCSc1nnc(N2CCN(c3ccccc3)CC2)s1,0.78
19,CCN(CC)CCSc1nnc(N2CCN(c3ccccc3)CC2)s1,-2.44
20,Cc1nnc(C2CCN(C(=O)c3ccc(-n4cccc4)cc3)CC2)s1,28
21,COc1nn(C)cc1C(=O)N1CCC(c2nnc(C(C)C)o2)CC1,-4.14
22,CC(C)n1cc(C(=O)NCCN(C)C)c2n[nH]c(=O)c-2c1,1.2
23,COCCCNC(=O)c1cn(C(C)C)cc2c(=O)[nH]nc1-2,-9.87
24,COCC(C)NC(=O)c1cn(C(C)C)cc2c(=O)[nH]nc1-2 (configuration not stated),-6.59

row,SMILES,cytotoxicity at 70.5 h [%]
1,CCCc1noc(C2CC(=O)N(Cc3ccccc3)C2)n1 (configuration not stated),-8.97
2,Cc1nn(C2CCS(=O)(=O)C2)c(C)c1CC(=O)NCc1ccccc1Cl (configuration not stated),-4.52
3,O=C(Nc1nc2c(s1)CCC2)NC1CCCC1,-9.48
4,COCCc1nnc(NC(=O)CSCc2ccccc2)o1,1.82
5,Cc1nccn1CC1CCN(C(=O)Cc2ccccc2)CC1,24.1
6,O=S(=O)(C1CC1)N1CCC(Cn2cccn2)CC1,-7.23
7,CCNC(=O)N1CCN(c2nc3ccccc3n2C)CC1,-3.78
8,COCC(=O)N1CCC(c2ccc(OC)cc2)C1 (configuration not stated),-16.3
9,COc1nn(C)cc1C(=O)N1CCC(c2ccccc2)C1 (configuration not stated),-1.63
10,CN1CCC(CNC(=O)NCc2ccc(F)cc2)CC1,-1.23
11,COc1ccccc1S(=O)(=O)NCC(c1cccn1C)N(C)C (configuration not stated),-2.15
12,Cn1cccc1CN(C(=O)Cc1cccs1)C1CC1,-2.78
13,Cn1cccc1C(O)CNC(=O)COc1ccccc1F (configuration not stated),-8.88
14,COc1cccc([C@@H]2CCN(Cc3c[nH]c(C)n3)C[C@H]2O)c1,17.7
15,CC1(COc2ccccc2)NCCc2[nH]cnc21 (configuration not stated),-2.27
16,O=C(NCc1nncn1C1CCCCC1)C1COc2ccccc2C1 (configuration not stated),-4
17,O[C@H]1CN(c2nc(-c3ccccc3)no2)C[C@@H]1N1CCOCC1,6.13
18,COc1cccc2c1OCC(NCCc1cnn(-c3ccccc3)c1)C2 (configuration not stated),-8.4
19,O=S1(=O)C[C@@H]2[C@H](C1)N(S(=O)(=O)N1CCCC1)CCN2Cc1ccccc1,-5.47
20,CCCc1nnc(N2CCC3(CC2)CC(=O)NC(=O)C3)o1,24.4
21,Cc1ccc(C)c(C(=O)N2CCC3(CCC(=O)N(CC(N)=O)C3)CC2)c1,29.9
22,Cc1[nH]ccc1C(=O)N1CCN(C)C2(CCC(=O)N(C)CC2)C1 (configuration not stated),-11.2
23,CN(CC(=O)N1CC(C)(C)[C@](O)(C2CC2)C1)Cc1ccncc1,-3.61
24,Cc1ccccc1SC1CCN(C(=O)C2CNC(=O)N2)CC1 (configuration not stated),2.9

row,SMILES,cytotoxicity at 70.5 h [%]
1,O=C(NCCN1CCNC1=O)c1cnc(-c2cccnc2)nc1,-3.28
2,CNc1ncccc1C(=O)N1CCc2c(nc(N)[nH]c2=O)C1,-3.13
3,O=C(Cc1ccccc1C(F)(F)F)N1CCC2(CC1)OCCCC2O (configuration not stated),-16.7
4,COCCCC1(CO)CCCN(Cc2nccs2)C1 (configuration not stated),-7.41
5,CC(C)(C)CC(=O)NS(=O)(=O)c1ccc(C#N)cc1C(F)(F)F,13.5
6,COc1ccc(Cl)cc1NCC(=O)NCCNc1ncccn1,-2.38
7,Cn1ccnc1CN1CCN(CC(=O)NCc2ccccc2F)CC1,1.39
8,Cn1ccnc1CN1CCN(CC(=O)NCc2cccs2)CC1,13.9
9,Cc1nnc(CN(Cc2ccc3c(c2)OCO3)C2CCCCC2)o1,-2.59
10,Cc1nnc(CN(Cc2ccc3c(c2)OCO3)C2CCC(C)CC2)o1 (configuration not stated),-1.97
11,CCOc1ccnc(N2CCN(C(=O)c3ccn(C)c(=O)c3)CC2)n1,-1.73
12,Cc1cnn(CC2CCCN2Cc2nnc(C3CC3)o2)c1 (configuration not stated),13.5
13,Cc1ccccc1CNC(=O)C1CCN(Cc2nccn2C)CC1,-0.376
14,COc1ccc(CNCC2CCN(c3ccccc3OC)C2)cc1O (configuration not stated),5.43
15,c1cc2c(cc1CN(Cc1nc(C3CC3)no1)C1CCCC1)OCO2,6.65
16,Cc1cccc(CN2CCC(N(C)Cc3nnc(C4CC4)n3C)C2)c1 (configuration not stated),-1.59
17,CN(Cc1nnc(C2CC2)n1C)C1CCN(Cc2ccncc2)C1 (configuration not stated),-2.37
18,CC(C)c1noc(C(C)N2CCN(CCCN3CCCC3=O)CC2)n1 (configuration not stated),-0.928
19,Cc1ccc(NC2CCN(C(=O)C(C(C)C)n3cncn3)CC2)nn1 (configuration not stated),-4.96
20,COc1ccc(CN(Cc2nc(C)no2)C2CCCCC2)cc1OC,-1.31
21,CC(C(=O)N1CCC(Nc2cccnn2)CC1)n1cccn1 (configuration not stated),20.4
22,Cc1nnc(C(C)N2CCCN(Cc3ccc(F)cc3)CC2)o1 (configuration not stated),-2.19
23,c1ccc(Cc2nnc(CN3CCCC3Cn3cccn3)o2)cc1 (configuration not stated),-1.31
24,Cc1nn(CC(C)C)c(N(C)C)c1CNCc1ccnn1C,28.6

row,SMILES,cytotoxicity at 70.5 h [%]
1,CC(C(=O)N1CCCN(Cc2cnn(C(C)C)c2)CC1)n1ccnc1 (configuration not stated),23.5
2,Cc1cnn(C2CCCN(C(=O)CCCn3ccnc3C)C2)c1 (configuration not stated),19.3
3,CC1COCCN1Cc1nc(-c2ccc(F)cc2)no1 (configuration not stated),-0.197
4,CC(C)n1cc(CN2CCCN(C(=O)CC3CCCCC3)CC2)cn1,-0.435
5,Cc1nc(C)n(CC2CCCN(Cc3cccc(F)c3F)C2)n1 (configuration not stated),2.26
6,COc1cccc(CN2CCCC(Cn3nc(C)nc3C)C2)c1 (configuration not stated),-1.83
7,CC(C)c1cnc(CN2CCCC(c3cc(C(N)=O)[nH]n3)C2)o1 (configuration not stated),2.28
8,Cc1cnn(C2CCCN(C(=O)CCc3cscn3)C2)c1 (configuration not stated),2.26
9,COc1c(CNCc2ccccc2Cn2ccnc2)c(C)nn1C,-0.234
10,COc1c(CNCc2cccc(Cn3cccn3)c2)c(C)nn1C,3.69
11,CC(C(=O)NCc1ccc(N2CCCCCC2)nc1)n1cncn1 (configuration not stated),3.18
12,CC(C(=O)NCc1ccc(N2CCCCC2)nc1)n1cncn1 (configuration not stated),-3.82
13,Cc1cccc(-c2ccc(C(=O)NCC3CCCO3)c(=O)[nH]2)c1 (configuration not stated),-10.2
14,COc1c(CNCc2ccc(Cn3ccnc3)cc2)c(C)nn1C,0.712
15,Cc1cnn(C2CCCN(C(=O)CCNS(C)(=O)=O)C2)c1 (configuration not stated),24.7
16,CCc1nnc(CN2CCCC(c3cc(C(N)=O)[nH]n3)C2)o1 (configuration not stated),-6.39
17,CC(NCc1ccccc1Cl)c1ccc2[nH]c(=O)[nH]c2c1 (configuration not stated),7.48
18,Cc1nn(CCO)c(C)c1CNCc1cccnc1N(C)C,-4.11
19,Cc1n[nH]c(C)c1C1COCCN1C(=O)c1ccc(Cl)o1 (configuration not stated),18
20,Cc1ncsc1C(=O)N(Cc1ccccn1)C1CC1,10
21,Cc1cc(CNc2cc(Cl)ccc2C)no1,-11.6
22,Cc1cc(CNc2ccccc2Cl)no1,-13.4
23,CCC(N)c1ccccc1OCC(=O)N1CCCC1 (configuration not stated),-7.75
24,Cc1ccccc1CC(=O)N1CCOCC1c1c(C)n[nH]c1C (configuration not stated),-6.23

row,SMILES,cytotoxicity at 70.5 h [%]
1,c1ccc(-n2nc(CNC3CCc4ncnn4C3)c3c2CCC3)cc1 (configuration not stated),9.35
2,COc1ccccc1C(=O)N1CCOCC1c1c(C)n[nH]c1C (configuration not stated),-15.2
3,CC(C)c1nnc(CN2CCCC(Cn3cncn3)C2)o1 (configuration not stated),-7.64
4,Cc1ncsc1C(=O)N(Cc1cccs1)C1CC1,-16.1
5,CCc1nc2n(n1)CC(NCc1cnn(-c3ccccc3)n1)CC2 (configuration not stated),-9.79
6,c1ncn(CC2CCCN(Cc3nnc(C4CC4)o3)C2)n1 (configuration not stated),11.5
7,COc1ncccc1CNC(=O)c1cnccn1,-12.4
8,COc1ncccc1CNC(=O)c1cnc(C)cn1,-3.16
9,CCC(NC(=O)c1ccoc1)c1ccccc1OCC(=O)N1CCCC1 (configuration not stated),-3.93
10,Cc1ccccc1C1(C(=O)NCCN(C(C)C)C(C)C)CCOCC1,-10
11,O=C(NCCN1CCCC1)C1(c2ccc(Cl)cc2)CCOCC1,-3
12,Cc1ccc(NC(=O)C2CSCN2C(=O)c2cnsn2)c(C)c1 (configuration not stated),-6.91
13,Cc1ccc(NC(=O)C2CSCN2C(=O)c2ccncc2)c(C)c1 (configuration not stated),-4.2
14,CC(C)c1ccc(OCCNC(=O)N2CCS(=O)(=O)CC2)cc1,-2.35
15,Cc1cnn(C2CCCN(C(=O)c3ccccc3-n3cnnn3)C2)c1 (configuration not stated),-3.2
16,Cc1ccc(O)c(C(=O)N2CCOCC2c2c(C)n[nH]c2C)c1 (configuration not stated),-1.53
17,CCN(CCCNCc1c(C)nn(C)c1N(C)C)S(C)(=O)=O,4.83
18,O=C(CCOc1ccccc1F)N1CCCC(n2cncn2)C1 (configuration not stated),6.03
19,Cc1ccccc1OCCCC(=O)N1CCCC(n2cncn2)C1 (configuration not stated),13
20,Cn1ccnc1N1CCN(C(=O)Cc2ccc(Cl)cc2)CC1,-1.94
21,Cc1cc(C(=O)N2CCN(C)CC2)nn1CC(=O)NCc1ccccn1,-8.07
